ChEMBL document CHEMBL5518195, “N-(Heteroaryl)thiophene sulfonamides as angiotensin AT2 receptor ligands” (Eur J Med Chem, 2024)

Legend:
[1] = molecular target: T1, Type-2 angiotensin II receptor (Homo sapiens, UniProt P50052); assay: Displacement of [125I][Sar1 Ile8]-angiotensin II binding to human AT2R expressed in HEK293 cells; assay type: cell-based
T1 sequence (P50052 whole entry): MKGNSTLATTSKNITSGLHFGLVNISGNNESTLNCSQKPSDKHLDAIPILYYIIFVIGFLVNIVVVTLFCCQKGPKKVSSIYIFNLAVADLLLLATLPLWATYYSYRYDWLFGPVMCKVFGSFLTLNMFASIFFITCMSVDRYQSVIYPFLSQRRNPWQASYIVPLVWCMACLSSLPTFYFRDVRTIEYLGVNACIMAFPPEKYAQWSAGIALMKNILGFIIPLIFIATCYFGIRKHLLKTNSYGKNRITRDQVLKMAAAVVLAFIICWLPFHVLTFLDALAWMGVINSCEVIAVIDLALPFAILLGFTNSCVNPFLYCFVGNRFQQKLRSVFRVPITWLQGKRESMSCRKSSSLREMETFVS

[2] = Stability in human liver microsomes assessed as half life at 1 uM in presence of NADPH by LC-MS/MS analysis; assay type: ADME, Microsome
[3] = Stability in mouse liver microsomes assessed as half life at 1 uM in presence of NADPH by LC-MS/MS analysis; assay type: ADME, Microsome; settings: time 60 min
[4] = Stability in human hepatocytes assessed as half life at 1 uM by LC-MS/MS analysis; assay type: ADME, cell-based, Hepatocyte
[5] = Apparent permeability across apical to basal side in human Caco-2 cells at 5 uM measured for 15 to 60 mins by LC-MS/MS analysis; assay type: ADME, cell-based; settings: time 15-60 min
[6] = Efflux ratio of apparent permeability in human Caco-2 cells at 5 uM measured for 15 to 60 mins by LC-MS/MS analysis; assay type: ADME, cell-based; settings: time 15-60 min
[7] = molecular target: T2, Type-1 angiotensin II receptor (Homo sapiens, UniProt P30556); assay: Inhibition of [125I][Sar1 Ile8]-angiotensin II binding to human AT1R expressed in HEK293 cells; assay type: cell-based
T2 sequence (P30556 whole entry): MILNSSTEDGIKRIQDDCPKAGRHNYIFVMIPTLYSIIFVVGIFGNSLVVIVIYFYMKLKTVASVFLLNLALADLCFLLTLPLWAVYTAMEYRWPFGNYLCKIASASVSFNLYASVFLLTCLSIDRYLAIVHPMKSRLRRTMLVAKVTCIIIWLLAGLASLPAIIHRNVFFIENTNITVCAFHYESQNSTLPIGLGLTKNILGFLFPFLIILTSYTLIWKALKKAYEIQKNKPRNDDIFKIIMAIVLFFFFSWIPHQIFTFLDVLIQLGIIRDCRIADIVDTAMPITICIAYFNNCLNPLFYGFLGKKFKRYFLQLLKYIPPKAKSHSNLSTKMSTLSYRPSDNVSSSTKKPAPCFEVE

[8] = tested on: Thoracic aorta; assay: Induction of vasorelaxation in pre-contracted thoracic aorta of FVB/N mouse; assay type: functional, tissue-based

Row | Ki [1] [nM] | half-life at 1 µM [2] [min] | half-life at 1 µM [3] [min] | half-life at 1 µM [4] [min] | Papp A→B at 5 µM [5] [×10⁻⁶ cm/s] | efflux ratio at 5 µM [6] | Ki [7] [µM] | SMILES | Activity [8]
1 | 4.3 | 1.2 | 2.3 | – | – | – | – | CC(C)Cc1cc(-c2cccc(C(=O)Cn3ccnc3C(C)(C)C)c2)c(S(=O)(=O)Nc2ncc(C#N)cn2)s1.O=C(O)C(F)(F)F | –
2 | 2 | 4.8 | 12 | – | – | – | – | CC(C)Cc1cc(-c2cccc(C(=O)Cn3ccnc3C(C)(C)C)c2)c(S(=O)(=O)Nc2ncc(C(F)(F)F)cn2)s1 | –
3 | 1.5 | 4.3 | 11 | – | – | – | – | CC(C)Cc1cc(-c2cccc(C(=O)Cn3ccnc3C(C)(C)C)c2)c(S(=O)(=O)Nc2ncc(Br)cn2)s1 | –
4 | 4.9 | 20 | 17 | 77 | 4.9 | 77 | > 3 | CC(C)Cc1cc(-c2cccc(C(=O)Cn3ccnc3C(C)(C)C)c2)c(S(=O)(=O)Nc2ncccn2)s1 | Dose-Dependent Effect
5 | 3.3 | 6.2 | 11 | – | – | – | – | CC(C)Cc1cc(-c2cccc(C(=O)Cn3ccnc3C(C)(C)C)c2)c(S(=O)(=O)Nc2ncc(Cl)cn2)s1.O=C(O)C(F)(F)F | –
6 | 1.7 | 16 | 21 | – | – | – | – | CC(C)Cc1cc(-c2cccc(C(=O)Cn3ccnc3C(C)(C)C)c2)c(S(=O)(=O)Nc2ncc(F)cn2)s1.O=C(O)C(F)(F)F | –

Continued, compound first:

Row | SMILES | Ki [1] [nM] | half-life at 1 µM [2] [min] | half-life at 1 µM [3] [min] | half-life at 1 µM [4] [min] | Papp A→B at 5 µM [5] [×10⁻⁶ cm/s] | efflux ratio at 5 µM [6] | Ki [7] [µM] | Activity [8]
7 | CC(C)Cc1cc(-c2cccc(Cn3ccnc3)c2)c(S(=O)(=O)Nc2nccc(C(F)(F)F)n2)s1.O=C(O)C(F)(F)F | 300 | 6.7 | 10 | – | – | – | – | –
8 | CC(C)Cc1cc(-c2cccc(C(=O)Cn3ccnc3C(C)(C)C)c2)c(S(=O)(=O)Nc2ccc(C#N)cc2)s1 | 600 | 1.2 | 2.3 | – | – | – | – | –
9 | CC(C)Cc1cc(-c2cccc(Cn3ccnc3)c2)c(S(=O)(=O)Nc2nccs2)s1 | 650 | 61 | 210 | – | – | – | – | –
10 | CC(C)Cc1cc(-c2cccc(Cn3ccnc3)c2)c(S(=O)(=O)Nc2nccc(C#N)n2)s1.O=C(O)C(F)(F)F | 100 | 12 | 37 | – | – | – | – | –
11 | CC(C)Cc1cc(-c2cccc(Cn3ccnc3)c2)c(S(=O)(=O)Nc2nc3ccccc3s2)s1.O=C(O)C(F)(F)F | 800 | 56 | 480 | – | – | – | – | –
12 | CC(C)Cc1cc(-c2cccc(Cn3ccnc3)c2)c(S(=O)(=O)Nc2ncc(Br)cn2)s1 | 42 | 14 | 160 | – | – | – | – | –
13 | CC(C)Cc1cc(-c2cccc(C(=O)Cn3ccnc3C(C)(C)C)c2)c(S(=O)(=O)Nc2nccs2)s1 | 96 | 6.7 | 6.4 | – | – | – | – | –
14 | CC(C)Cc1cc(-c2cccc(Cn3ccnc3)c2)c(S(=O)(=O)Nc2nccc(C(N)=O)n2)s1.O=C(O)C(F)(F)F | 1100 | 43 | 36 | – | – | – | – | –
15 | COc1ccc2c(c1OCc1ccccc1)C[C@@H](C(=O)O)N(C(=O)C(c1ccccc1)c1ccccc1)C2 [OLODANRIGAN] | – | – | – | – | 1.8 | 32 | – | –
16 | Cc1nc(NS(=O)(=O)c2sc(CC(C)C)cc2-c2cccc(Cn3ccnc3)c2)ncc1Cl | 300 | 6.6 | 23 | – | – | – | – | –
17 | CC(C)Cc1cc(-c2cccc(C(=O)Cn3ccnc3C(C)(C)C)c2)c(S(=O)(=O)Nc2ccc(C(F)(F)F)cn2)s1 | 29 | 2.3 | 3.6 | – | – | – | – | –
18 | CCCCOC(=O)NS(=O)(=O)c1sc(CC(C)C)cc1-c1cccc(Cn2ccnc2)c1 | – | – | – | – | 3.4 | – | – | –
